Experimental data from patent US20020042400A1, “Novel alicyclic imidazoles as H3 agents” (priority 2000, published 2002).
Counter-ions that a name gives are not always drawn. Like-named read-outs stand apart in the source and are kept apart here.

Key:
Histamine H3 receptor [1] = target: T1, Histamine H3 receptor (Rattus norvegicus, UniProt Q9QYN8); conditions: radioligand Kd used in the Ki equation; read-out: Kd for [^3H]NAMHA; cited from earlier work
Histamine H3 receptor [2] = target: T1, Histamine H3 receptor; experiment: Histamine H3 receptor competition binding with [^3H]NAMHA in rat cerebral cortical membranes
Protocol: Histamine H3 receptor affinity was determined in rat cerebral cortical membranes with [^3H]NAMHA as previously described (Tedford et al., 1995). Animals were euthanized by rapid decapitation and cerebral cortical tissues were harvested and frozen on dry ice. Cerebral cortical membranes were prepared in 50 mM sodium-phosphate buffered saline (pH 7.5 at 4° C.) containing: EDTA (10 mM), phenylmethylsulfonyl fluoride (0.1 mM), chymostatin and leupeptin (each 0.2 mg/50 mL). The final membrane pellets were resuspended in water and stored frozen at −80° C. prior to use. Protein concentrations were determined using the Coomassie Plus Protein Assay (Pierce, Rockford Ill.).
Competition binding was carried out in a total volume of 0.2 mL of 50 mM sodium-phosphate buffer (pH 7.4) using ˜1 nM [^3H]NAMHA ([^3H]—N^α-methylhistamine, available from NEN Research Products of Boston, Mass.) and 0.003 to […] concentrations of the test compounds. Non-specific binding was determined using 10 μM thioperamide. Samples were incubated for 40 minutes at 25° C. and subsequently filtered through Whatman GF/C glass fiber filters pre-soaked in binding buffer with 0.3% polyethyleneimine, using an Inotech cell harvester (Inotech Biosystems International, Lansing Mich.). The filters were rapidly washed three times with Tris-NaCl buffer (25 and 145 mM, respectively, pH 7.4, 4° C.). Samples were quantitated using Ecolume scintillation cocktail (ICN Biomedicals; Costa Mesa Calif.) and a Packard model 1900TR liquid scintillation analyzer (Packard Instrument Co., Downers Grove Ill.). IC50 values were extrapolated from a plot of receptor occupancy (i.e. % bound) vs. log [competitor].

[3] = rat cerebral cortical membranes, ~1 nM [^3H]NAMHA, 40 minutes at 25° C., Ki=IC50/(1+([ligand]/[Kd]), read-out: Ki

T1 sequence (Q9QYN8 whole entry): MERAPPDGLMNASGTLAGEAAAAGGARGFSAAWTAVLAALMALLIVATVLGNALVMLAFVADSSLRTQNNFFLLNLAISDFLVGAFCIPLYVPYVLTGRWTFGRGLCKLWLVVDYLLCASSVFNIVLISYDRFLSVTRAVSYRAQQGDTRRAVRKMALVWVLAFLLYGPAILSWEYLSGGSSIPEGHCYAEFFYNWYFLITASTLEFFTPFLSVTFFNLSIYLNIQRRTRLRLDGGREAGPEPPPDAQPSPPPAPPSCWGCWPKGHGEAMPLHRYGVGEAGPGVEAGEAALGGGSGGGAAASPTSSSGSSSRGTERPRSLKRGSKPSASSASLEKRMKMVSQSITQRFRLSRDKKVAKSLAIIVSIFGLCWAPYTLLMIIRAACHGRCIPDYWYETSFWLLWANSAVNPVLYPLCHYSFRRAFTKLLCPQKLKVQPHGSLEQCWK

| Compound | Ki (Histamine H3 receptor [2]; [3]) [nM] | further results |
| --- | --- | --- |
| CNCCc1cnc[nH]1 [[^3H]NAMHA, [^3H]—N^α-methylhistamine] |  | Kd (Histamine H3 receptor [1]): 0.4 nM |
| NC(=O)[C@@H]1C[C@H]1c1c[nH]cn1 (relative stereo) [Example 2, 4-(trans-2-aminocarbonyl-cyclopropyl) Imidazole Trifluoroacetic Acid Salt] | 127 |  |
| N#C[C@@H]1C[C@H]1c1c[nH]cn1 (relative stereo) [Example 1, 4-(trans-2-cyano-cyclopropyl) Imidazole Trifluoroacetic Acid Salt] | 20 |  |
| CNC(=N)[C@@H]1C[C@H]1c1c[nH]cn1 (relative stereo) [Example 7, 4-(trans-2-N-methylamidino-cyclopropyl) Imidazole Di-hydrochloric Acid Salt] | 114 |  |
| OC[C@@H]1C[C@H]1c1c[nH]cn1 (relative stereo) [Example 6, 4-(trans-2-hydroxymethyl-cyclopropyl) Imidazole Trifluoroacetic Acid Salt] | 263 |  |
| NC[C@@H]1C[C@H]1c1c[nH]cn1 (relative stereo) [Example 4, 4-(trans-2-aminomethyl-cyclopropyl) Imidazole Di-hydrochloric Acid Salt] |  | Ki (Histamine H3 receptor [2]): 4.5 nM |
| O/N=C/C1CC1c1c[nH]cn1 (stereo not drawn) [Example 5, 4-(trans-2-N-hydroxyimino-cyclopropyl) Imidazole] | 23 |  |
| N=C(N)[C@@H]1C[C@H]1c1c[nH]cn1 (relative stereo) [Example 3, 4-(trans-2-amidino-cyclopropyl) Imidazole Di-trifluoroacetic Acid Salt] | 6.7 |  |
